# In the supplement of paper PMC11451515:
# Tested on: P12-Ichikawa
# Assay: cell viability relative to DMSO control; higher = less cytotoxic
# Settings: 48 h
# Method in brief: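 Viability is expressed as a percentage of DMSO wells within each plate, and cell-free wells serve as background. Seeding densities in the 1536-well plates (5 μl) were 500 cells/well for NOMO1 or SEM leukemia cells and 1000 cells/well for P12-Ichikawa. Each line was adapted for at least four passages in each medium. Library compounds in DMSO were pin-dosed at 47 μM to 0.79 nM (11 points, threefold), and CellTiter-Glo One luminescence was read after 48 h at 37°C.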
# [1] = HPLM + 10% dialyzed FBS, 0.000781 µM
# [2] = HPLM + 10% dialyzed FBS, 0.00234 µM
# [3] = HPLM + 10% dialyzed FBS, 0.00702 µM
# [4] = HPLM + 10% dialyzed FBS, 0.0211 µM
# [5] = HPLM + 10% dialyzed FBS, 0.0632 µM
# [6] = HPLM + 10% dialyzed FBS, 0.19 µM
# [7] = HPLM + 10% dialyzed FBS, 0.569 µM
# [8] = HPLM + 10% dialyzed FBS, 1.71 µM
# [9] = HPLM + 10% dialyzed FBS, 5.12 µM
# [10] = HPLM + 10% dialyzed FBS, 15.4 µM
# [11] = HPLM + 10% dialyzed FBS, 46.1 µM
# [12] = RPMI 5 mM glucose + 10% FBS, 0.000781 µM
# [13] = RPMI 5 mM glucose + 10% FBS, 0.00234 µM
# [14] = RPMI 5 mM glucose + 10% FBS, 0.00702 µM
# [15] = RPMI 5 mM glucose + 10% FBS, 0.0211 µM
# [16] = RPMI 5 mM glucose + 10% FBS, 0.0632 µM
# [17] = RPMI 5 mM glucose + 10% FBS, 0.19 µM
# [18] = RPMI 5 mM glucose + 10% FBS, 0.569 µM
# [19] = RPMI 5 mM glucose + 10% FBS, 1.71 µM
# [20] = RPMI 5 mM glucose + 10% FBS, 5.12 µM
# [21] = RPMI 5 mM glucose + 10% FBS, 15.4 µM
# [22] = RPMI 5 mM glucose + 10% FBS, 46.1 µM
# [23] = RPMI 5 mM glucose + 10% dialyzed FBS, 0.000781 µM
# [24] = RPMI 5 mM glucose + 10% dialyzed FBS, 0.00234 µM
# [25] = RPMI 5 mM glucose + 10% dialyzed FBS, 0.00702 µM
# [26] = RPMI 5 mM glucose + 10% dialyzed FBS, 0.0211 µM
# [27] = RPMI 5 mM glucose + 10% dialyzed FBS, 0.0632 µM
# [28] = RPMI 5 mM glucose + 10% dialyzed FBS, 0.19 µM
# [29] = RPMI 5 mM glucose + 10% dialyzed FBS, 0.569 µM
# [30] = RPMI 5 mM glucose + 10% dialyzed FBS, 1.71 µM
# [31] = RPMI 5 mM glucose + 10% dialyzed FBS, 5.12 µM
# [32] = RPMI 5 mM glucose + 10% dialyzed FBS, 15.4 µM
# [33] = RPMI 5 mM glucose + 10% dialyzed FBS, 46.1 µM
SMILES,cell viability [1] [%],cell viability [2] [%],cell viability [3] [%],cell viability [4] [%],cell viability [5] [%],cell viability [6] [%],cell viability [7] [%],cell viability [8] [%],cell viability [9] [%],cell viability [10] [%],cell viability [11] [%],cell viability [12] [%],cell viability [13] [%],cell viability [14] [%],cell viability [15] [%],cell viability [16] [%],cell viability [17] [%],cell viability [18] [%],cell viability [19] [%],cell viability [20] [%],cell viability [21] [%],cell viability [22] [%],cell viability [23] [%],cell viability [24] [%],cell viability [25] [%],cell viability [26] [%],cell viability [27] [%],cell viability [28] [%],cell viability [29] [%],cell viability [30] [%],cell viability [31] [%],cell viability [32] [%],cell viability [33] [%]
CCCCCCCCOc1ccccc1C(=O)Nc1ccc(C(=O)OCC[N+](C)(CC)CC)cc1,93.6,94.9,98.2,95.8,97.7,98.3,89.1,91.4,85.6,84.2,71.8,91.6,102,89.9,107,104,104,93.4,91.3,85.2,87.7,49,89.3,83.5,88.2,90.3,95,86.2,91,90.3,78.6,83.4,46.4
CCCC(CCC)C(=O)[O-],87.4,96.6,103,102,106,104,102,103,109,105,101,88.6,103,105,110,115,119,105,108,105,105,94.8,94.2,102,102,114,112,107,104,101,107,106,96.5
CCNC(=O)Nc1ccc(-c2nc3c(c(N4CCOC[C@@H]4C)n2)CCN(C2COC2)C3)cc1,114,111,113,112,110,100,82.1,63.8,56.6,49.5,46.1,113,113,107,116,104,96.8,82.7,61.6,55.4,41.3,33.9,114,108,111,106,103,95.8,79.3,64.1,54.6,39.9,32.7
CCCCOc1ccc(CC(=O)NO)cc1,108,108,108,110,111,102,102,105,107,97.5,67.7,115,115,102,116,109,111,105,101,100,96.4,59.1,114,109,113,108,110,104,108,106,98.3,92.4,59.2
